Here are results for one molecule from ChEMBL document CHEMBL3046425, “Synthesis of Antifungal 2-Anilino-4-phenylthiazoles and Their Inhibitory Activities on Sterol Biosynthesis” (J Pestic Sci, 2001).

In test [1] the target is T1, Squalene epoxidase ERG1 (Saccharomyces cerevisiae S288c) (UniProt P32476).
T1 sequence (whole entry): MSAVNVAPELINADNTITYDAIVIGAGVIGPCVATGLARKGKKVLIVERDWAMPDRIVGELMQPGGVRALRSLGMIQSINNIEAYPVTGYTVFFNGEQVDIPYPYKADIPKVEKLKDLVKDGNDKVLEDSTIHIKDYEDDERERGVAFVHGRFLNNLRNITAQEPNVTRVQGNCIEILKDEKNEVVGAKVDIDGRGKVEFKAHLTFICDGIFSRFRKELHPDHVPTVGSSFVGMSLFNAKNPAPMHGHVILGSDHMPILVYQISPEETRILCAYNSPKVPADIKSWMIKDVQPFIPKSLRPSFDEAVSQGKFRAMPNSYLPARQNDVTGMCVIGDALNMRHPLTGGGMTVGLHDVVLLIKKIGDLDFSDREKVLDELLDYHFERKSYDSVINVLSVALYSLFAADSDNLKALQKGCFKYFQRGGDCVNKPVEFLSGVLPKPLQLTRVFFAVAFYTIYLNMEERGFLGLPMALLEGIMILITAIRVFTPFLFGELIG
Nature of the test: Inhibition of squalene epoxidase in Saccharomyces cerevisiae IFO 1346 assessed as incorporation of [2-14C]mevalonate into squalene at 1 x 10^-5 M after 3 hr. Also on record: scale not given: the % may be the effect or the level left.

Test [2] concerns the target T1, Squalene epoxidase ERG1 (Saccharomyces cerevisiae S288c). Nature of the test: Inhibition of squalene epoxidase in Saccharomyces cerevisiae IFO 1346 assessed as incorporation of [2-14C]mevalonate into 2,3-oxidosqualene at 1 x 10^-5 M after 3 hr. Also on record: scale not given: the % may be the effect or the level left.
Test [3] has as its system Botrytis cinerea. The test is described as follows: Antifungal activity against Botryotinia fuckeliana assessed as accumulation of squalene using [2-14C]acetate at 1 x 10^-5 M. The class given is functional.
The test system of test [4] is Botrytis cinerea. Nature of the test: Antifungal activity against Botryotinia fuckeliana. The class given is functional, organism-based.
Test [5] concerns the target T1, Squalene epoxidase ERG1 (Saccharomyces cerevisiae S288c). Nature of the test: Inhibition of squalene epoxidase in Saccharomyces cerevisiae IFO 1346 assessed as incorporation of [2-14C]mevalonate into 4-desmethyl sterols at 1 x 10^-4 M after 3 hr. Also on record: scale not given: the % may be the effect or the level left.
The test system of test [6] is Trichophyton mentagrophytes. Nature of the test: Antifungal activity against Trichophyton mentagrophytes assessed as accumulation of squalene using [2-14C]acetate at 1 x 10^-8 M. The class given is functional.
The test system of a further test is Pyricularia oryzae. The test is described as follows: Antifungal activity against Magnaporthe oryzae. The class given is functional, organism-based.
The subject of test [7] is Trichophyton mentagrophytes. The test is described as follows: Antifungal activity against Trichophyton mentagrophytes assessed as accumulation of squalene using [2-14C]acetate at 1 x 10^-9 M. The class given is functional.
The target in test [8] is T1, Squalene epoxidase ERG1 (Saccharomyces cerevisiae S288c). Nature of the test: Inhibition of squalene epoxidase in Saccharomyces cerevisiae IFO 1346 assessed as incorporation of [2-14C]mevalonate into 2,3-oxidosqualene at 1 x 10^-4 M after 3 hr. Also on record: scale not given: the % may be the effect or the level left.
Test [9] deals with Trichophyton mentagrophytes. Nature of the test: Antifungal activity against Trichophyton mentagrophytes assessed as accumulation of squalene using [2-14C]acetate at 1 x 10^-7 M. The class given is functional.
Test [10] deals with T1, Squalene epoxidase ERG1 (Saccharomyces cerevisiae S288c). Nature of the test: Inhibition of squalene epoxidase in Saccharomyces cerevisiae IFO 1346 assessed as incorporation of [2-14C]mevalonate into squalene at 1 x 10^-4 M after 3 hr. Also on record: scale not given: the % may be the effect or the level left.
Test [11] relates to Trichophyton mentagrophytes. The test is described as follows: Antifungal activity against Trichophyton mentagrophytes. The class given is functional.
The test system of test [12] is Botrytis cinerea. Nature of the test: Antifungal activity against Botryotinia fuckeliana assessed as accumulation of squalene using [2-14C]acetate at 1 x 10^-6 M. The class given is functional.
The target of test [13] is T1, Squalene epoxidase ERG1 (Saccharomyces cerevisiae S288c). The test is described as follows: Inhibition of squalene epoxidase in Saccharomyces cerevisiae IFO 1346 assessed as incorporation of [2-14C]mevalonate into 4alpha-methyl sterols at 1 x 10^-5 M after 3 hr. Also on record: scale not given: the % may be the effect or the level left.
Test [14] shares this target. Nature of the test: Inhibition of squalene epoxidase in Saccharomyces cerevisiae IFO 1346 assessed as incorporation of [2-14C]mevalonate into 4alpha-methyl sterols at 1 x 10^-4 M after 3 hr. Also on record: scale not given: the % may be the effect or the level left.
For test [15] the target is unchanged. The test is described as follows: Inhibition of squalene epoxidase in Saccharomyces cerevisiae IFO 1346 assessed as incorporation of [2-14C]mevalonate into 4,4-dimethyl sterols at 1 x 10^-5 M after 3 hr. Also on record: scale not given: the % may be the effect or the level left.
For test [16], the system named is Botrytis cinerea. The test is described as follows: Antifungal activity against Botryotinia fuckeliana assessed as accumulation of squalene using [2-14C]acetate at 1 x 10^-7 M. The class given is functional.
Test [17] has as its target T1, Squalene epoxidase ERG1 (Saccharomyces cerevisiae S288c). The test is described as follows: Inhibition of squalene epoxidase in Saccharomyces cerevisiae IFO 1346 assessed as incorporation of [2-14C]mevalonate into 4-desmethyl sterols at 1 x 10^-5 M after 3 hr. Also on record: scale not given: the % may be the effect or the level left.
The target is the same in test [18]. Nature of the test: Inhibition of squalene epoxidase in Saccharomyces cerevisiae IFO 1346 assessed as incorporation of [2-14C]mevalonate into 4,4-dimethyl sterols at 1 x 10^-4 M after 3 hr. Also on record: scale not given: the % may be the effect or the level left.

Values after ≈ are worked out from the molar mass of the structure shown.

Turning to `Clc1ccc(Nc2nc(-c3c(Cl)cccc3Cl)cs2)cc1`, the Activity in test [1] is 44.9%; in test [2], 3.6%; in the test with Botrytis cinerea [3] it was 86.7%; in test [5] it was 15.3%; in [6], 67.4%; in [7], 28.5%. Besides, the Activity worked out at 1.9% in test [8]; 85.8% in test [9]; 80.3% in test [10]; 72.5% with Botrytis cinerea [12]; 1.7% in [13]; 0.7% in test [14]. The Activity in test [15] worked out at 1.5%; in the test with Botrytis cinerea [16], 7.5%; in test [17] it was 47.2%; in test [18], 0.9%. The figures for the EC50 in the test on Botrytis cinerea [4] and with Pyricularia oryzae were 0.05 µg/mL (≈ 0.141 µM) and 0.4 µg/mL (≈ 1.12 µM), respectively. In [11], the MIC (usually the lowest concentration that inhibits growth of the organism) amounted to 0.03 µg/mL (≈ 0.0843 µM).
